Series [1] deals with cell cycle. The experiment in a line: Cell cycle analysis, DNA content by flow cytometry of propidium iodide stained cells. The following applies: position of cell cycle arrest. The format is cell-based. As for the experimental part: Cell cycle analysis and NCl screen. The data in FIG. 21 and Table 11 show potential structure-activity trends. Several amides derived from the triphenylacetic acid (TPA) and triphenylpropionic acid (TPP) building blocks induced a high degree of cell death in this assay. Experiments were conducted to determine the position on the cell cycle at which these compounds arrest cell growth. This is typically determined by assessing the DNA content as measured flow cytometry analysis of cells stained by propidium iodide. Flow cytometry data is presented in FIG. 22, along with control data. […] One of the active apoptotic inducers identified from this combinatorial library that was not derived from the TPA or TPP building blocks (x) also arrests cell growth in the G2/M phase as indicated by the data in FIG. 22B. However, compounds containing the triphenylacetic acid and triphenylpropionic acid building blocks all arrest cell growth in the G1 phase (FIG. 22C and FIG. 22D). Here compounds x and y correspond to compounds Z2 and Z3.
A general note: In flow cytometry, cells or beads pass a laser one at a time.

The subject of series [2] is U-937 cells. The experiment in a line: High-throughput cell death assay on library members (MTS/PMS). The format is cell-based, human. Conditions: library members at 100 μM, 24 hours.
The nature of series [3]: in vitro. The format is cell-based, human. Conditions: human.
Series [4] deals with caspase-3 like protease activity in U-937 cells. The experiment in a line: Caspase-3 activity assay (Ac-DEVD-pNA cleavage by cell lysates). The following applies: 100 μM. The format is cell-based, human. The method, then: Caspase-3 Activity Assay: The amount of caspase-3 like protease activity was determined by the amount of Ac-DEVD-pNA (N-acetyl-Asp-Glu-Val-Asp p-nitroanilide) cleaved per minute by cell lysates. To accomplish this, 100 μM of 13-D was added to cell culture flasks containing 50 mL of 10×10^6 U-937 cells/mL at 72, 48, 36, 24, 12 and 0 hours before harvesting. Cells were harvested by centrifugation, counted and diluted with RPMI 1640 media to a concentration of 4×10^6 cells/mL. 100 μL of the diluted cells were added to the wells of a 96-well plate in quadruplicate. The plate was then spun at 1000×g for 5 minutes to pellet the cells. […] The slope of the linear portion for each compound was then determined and any cleavage of the substrate in the control wells was subtracted out. The amount of Ac-DEVD-pNA cleaved in pmol/min was then calculated and plotted.
Apoptotic assays. […] Thus early stage (mitochondrial membrane depolarization), middle stage (caspase-3 like activation, PARP-1 cleavage) and late stage (chromatin condensation, phosphatidylserine exposure, membrane blebbing) biochemical events were monitored. […] Several dyes, including JC-9, have been developed that provide a sensitive readout on this process. […] The caspase-3-like activity of the cells can be monitored with peptidic substrates. […]

Series [5] deals with U-937 cells. As to the kind of experiment: Analysis of mitochondria depolarization by flow cytometry (JC-9 dye). The format is cell-based, human. As for the experimental part: Further experiments assessed whether the observed death from 12-D, 13-D, and 15-D was due to apoptosis or necrosis.
Analysis of Mitochondria Depolarization by Flow Cytometry: The depolarization of the mitochondrial membrane was measured by the fluorescence emitted by the JC-9 dye (Molecular Probes, Eugene Oreg.). 100 μM of 13-D or 10 μM etoposide in 1 μL of EtOH were added to cell culture flasks containing 50 mL of 10×10^6 U-937 cells/mL. […] 10 μg of the JC-9 dye was added to 1×10^6 cells in 1 mL and incubated at room temperature for 10 min. Cells were washed twice with PBS and resuspended in a final volume of 500 μL PBS. The fluorescence intensity of each cell was determined by flow cytometry at 525 nm (channel 1 green) and 675 nm (channel 4 red). 50,000 cells were analyzed in each experiment. The data was then analyzed using Summit Software (Cytomation, Fort Collins Colo.) and the number of cells within the upper left region, viable cells, was determined.
Apoptotic assays. To determine whether the observed death was due to apoptosis or necrosis, several apoptotic hallmarks were examined. Thus early stage (mitochondrial membrane depolarization), middle stage (caspase-3 like activation, PARP-1 cleavage) and late stage (chromatin condensation, phosphatidylserine exposure, membrane blebbing) biochemical events were monitored. The depolarization of mitochondrial membranes facilitates the release of pro-apoptotic proteins such as cytochrome c and AIF (apoptosis inducing factor) from the mitochondria into the cytosol. Several dyes, including JC-9, have been developed that provide a sensitive readout on this process. […] The release of pro-apoptotic stimuli from the mitochondria initiates a cascade of events that ultimately results in the activation of the “executioner” caspases, typically caspase-3 and caspase-7. The caspase-3-like activity of the cells can be monitored with peptidic substrates. […] PARP-1 cleavage. A final event in apoptosis is the exposure of phosphatidylserine on the outer leaflet of the cell membrane; this event allows for recognition of apoptotic cells by phagocytes, ultimately leading to the engulfment of the apoptotic cell and the recycling of the various cellular components.

In series [6] the test system is T cells. The format is cell-based, mouse. The source says: Erythrocytes were selectively lysed and the T cells were highly enriched by using a mouse erythrocyte lysing kit and a mouse T cell enrichment column (R & D Systems, Minneapolis Minn.). FITC labeled anti-TCR antibodies were used to determine the purity of T cells in pre- and post-column samples. The T cells were enriched from approximately 35% to 90% of the total cell population (see FIG. 6A, 6B below). […] These cells were either stimulated to grow (by addition of ConA to a concentration of 2.5 μg/mL) or left untreated. […] After the 72 hours of incubation, 200 μL of cells were diluted in 300 μL PBS. Propidium iodide was then added to a concentration of 1 μg/mL. Cells were then incubated at room temperature for 5 minutes and analyzed by flow cytometry. The fluorescene intensity of each cell was determined at 620 nm (channel 3) and at least 50,000 cells were analyzed for each experiment (FIG. 7A, 7B, below). The data was then analyzed using Summit Software (Cytomation, Fort Collins Colo.) and the number of viable cells was determined. Non-concanavalin A stimulated T cells were also treated with 13-D, and viable cells in these samples were determined by PI staining (as above).
FIG. 7A illustrates flow cytometry data from Concanavalin A stimulated T cells; region R1 indicates 86.4% viable cells. […]

For series [7], the system named is U-937 cells. The experiment in a line: Microscopy of treated cells. It is filed as cell-based, human. Conditions: 100 μM. As for the experimental part:
Compound 13-D was added to make a final concentration of 100 μM. Pictures of the cells were taken at various times using a Carl Zeiss confocal microscope (Carl Zeiss, Thornwood N.Y.). Picture at 100×; FIG. 9B. Picture at 100×; FIG. 10A. Picture at 400×; FIG. 10B. Picture at 400×; FIG. 10C. Picture at 400×; and FIG. 11. Picture at 200×.

In series [8] the test system is splenocytes. As to the kind of experiment: Splenocyte toxicity assay (concanavalin A stimulated, MTS/PMS). The following applies: 72 h.
Experimental: For this experiment, the spleen from a euthanized mouse was harvested, and the splenocytes isolated.
Splenocyte Toxicity Assay: Splenocytes were isolated from the spleen of a 7-month old male C57Black/6 mouse and suspended in 1 mL RPMI 1640+10% FBS+2.5 μg/mL concanavalin A. These cells were counted and diluted so that 2.5×10^5 cells were seeded in to each well containing a total of 200 μL of media. […] 1 μL of EtOH was added to separate control wells. After 72 hours of incubation, 20 μL of the MTS/PMS CellTiter 96 Cell Proliferation Assay reagent (Promega, Madison Wis.) was added to each well. The plates were incubated at 37° C. for approximately two hours until the colored product formed and the absorbance was then measured at 490 nm in a Spectra Max Plus 384 plate reader (Molecular Devices, Sunnyvale Calif.).

These results are taken from US7632972B2, “Compounds and methods for treatment of cancer and modulation of programmed cell death for melanoma and other cancer cells” (The Board of Trustees of the University of Illionis, priority 2003, dated 2009).

pIC50: −log10 of the molar value. Entries after “also recorded” stand apart in the source; their conditions may differ.

With `CC(=O)O[C@H]1C(=O)[C@@]2(C)[C@H]([C@H](OC(=O)c3ccccc3)[C@]3(O)C[C@H](OC(=O)[C@H](O)[C@@H](NC(=O)c4ccccc4)c4ccccc4)C(C)=C1C3(C)C)[C@]1(OC(C)=O)CO[C@@H]1C[C@@H]2O` [Taxol], the cell cycle arrest result in series [1] is “mitotic (M) phase arrest”.

Regarding `COc1cc(/C=C/C(=O)NC[C@@H](O)c2ccc(O)cc2)ccc1O` [Compound 13-D, N-[2-(S)-Hydroxy-2-(4-hydroxy-phenyl)-ethyl]-3-(4-hydroxy-3-methoxy-phenyl)-acrylamide], the “Induction of death in U-937 cells (percentages of cell death)” value in series [2] came out at 87%. 44 µM corresponded to half-maximal inhibition in series [3] (IC50 at 72 h). In addition, the caspase-3 activity entry in series [4] was “strong induction of caspase-3 activity”. In addition, the “observed death due to apoptosis or necrosis” value in series [5] is listed as “induced apoptosis”. The “cell population in which apoptosis is induced (JC-9 staining)” value in series [5] (100 μM, 72 h) is on record as “over 70%”. Also, the “viable cells, treated versus non-treated control cells” value in series [6] is “no difference was observed”. The “microscopy, evidence of apoptosis” value in series [7] was “membrane blebbing and cell shrinkage”. Besides, in series [8] (500 μM), the “toxicity towards actively dividing splenocytes” value is “virtually no death; also recorded: virtually no toxicity”. Moreover, the pIC50 (commonly the IC50 on a negative log10 scale, so that one unit is a factor of ten) in series [8] (Mus musculus, Splenocyte, read-out: IC50 for non-cancerous splenocytes) was below 3.00.
